# Data published in patent US20250090622A1, “ANGIOTENSIN COMPOSITIONS AND METHODS RELATED THERETO” (LA JOLLA PHARMA, LLC, priority 2017, published 2025).
# Like-named read-outs stand apart in the source and are kept apart here.
# Experiments:
# blood pressure [1] = conditions: intravenous dosing, dogs; cited from earlier work
# blood pressure [2] = conditions: intravenous dosing, rabbits; cited from earlier work
# [3] = test system: sepsis-induced hypotension; conditions: porcine fecal peritonitis septic shock; hemodynamic effects similar to norepinephrine; cited from earlier work
# [4] = test system: hypotension in distributive shock; assay: clinical study of angiotensin II in treating hypotension in distributive shock; type: in vivo, human; conditions: 95% CI 4.76 to 13.3; P<0.001
# Protocol: Vials containing 2 milliliters of 2.5 mg/mL (mg) angiotensin II in 0.9% saline and 25 mg/mL mannitol were evaluated in a clinical study of angiotensin II in treating hypotension in distributive shock (Khanna et al., N Engl J Med 2017; 377:419-430). Patients were currently on other vasopressors but still hypotensive (mean arterial pressure (MAP)[…]65 mmHg). Administration of angiotensin II was begun at a rate of 20 ng/kg/min, and titrated up or down to achieve and maintain an increased MAP of 10 mmHg above baseline or at least 75 mmHg. For the first 3 hours of treatment, the other vasopressors were held constant and the maximum dose allowed of angiotensin II was 200 ng/kg/min. At 3 hours and 15 minutes, all vasopressors could be titrated to maintain a MAP between 65-75 mmHg and an angiotensin II rate of 1.25-40 ng/kg/min. Angiotensin II could be administered for up to 7 days in this study. In this study, about 1 vial of drug (5 mg) was sufficient to treat each patient for a 24-hour period, and patients were on the treatment for an average of 2 days. Most patients required at least 1 mg of drug per day.
# A total of 344 patients were assigned to one of the two regimens; 321 received a study intervention (163 received angiotensin II, and 158 received placebo) and were included in the analysis.
# blood pressure [5] = conditions: intravenous dosing, rats; cited from earlier work
smiles,measurement,setting,value
"CC[C@H](C)[C@H](NC(=O)[C@H](Cc1ccc(O)cc1)NC(=O)[C@@H](NC(=O)[C@H](CCCNC(=N)N)NC(=O)[C@@H](N)CC(=O)O)C(C)C)C(=O)N[C@@H](Cc1c[nH]cn1)C(=O)N1CCC[C@H]1C(=O)N[C@@H](Cc1ccccc1)C(=O)O [angiotensin II, H-Asp-Arg-Val-Try-Ile-His-Pro-Phe-OH]",effect on blood pressure,blood pressure [1],increase in blood pressure
same,effect on blood pressure,blood pressure [2],increase in blood pressure
same,effect on sepsis-induced hypotension,[3],reversed sepsis-induced hypotension
same,"odds ratio for primary end point, angiotensin II vs placebo",[4],7.95
same,effect on blood pressure,blood pressure [5],increase in blood pressure
